Experimental data: patent US10640495B2, “Heterocycle derivatives having TrkA inhibitory activity” (Shionogi & Co., Ltd., priority 2015, dated 2020)
Where two headings read alike, the source gives them in different places.

Biological target: human TrkA (Homo sapiens (Human), UniProt P04629)
Experiment: Human TrkA inhibition assay (Test Example 2)
Type: biochemical
Summary of the method: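 Mobility-shift readout of phosphorylated versus unphosphorylated fluorescent peptide gave conversion ratio, normalized to DMSO and no-enzyme wells; IC50 by logistic fit of 10- or 15-point 3-fold dilutions. Conditions: 1 nmol/L enzyme, 15 min compound preincubation, then 500 μmol/L ATP plus 1.5 μmol/L peptide, 120 min, 37 °C.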

[1] = Table 154, human TrkA inhibition, read-out: IC50
[2] = Table 157, human TrkA inhibition, read-out: IC50
[3] = Table 153, human TrkA inhibition, read-out: IC50
[4] = Table 155, human TrkA inhibition, read-out: IC50
[5] = human TrkA 1 nmol/L, ATP 500 μmol/L, 120 min at 37° C., read-out: IC50 values (TrkA phosphorylation inhibition)

Chain of human TrkA (P04629 440-796): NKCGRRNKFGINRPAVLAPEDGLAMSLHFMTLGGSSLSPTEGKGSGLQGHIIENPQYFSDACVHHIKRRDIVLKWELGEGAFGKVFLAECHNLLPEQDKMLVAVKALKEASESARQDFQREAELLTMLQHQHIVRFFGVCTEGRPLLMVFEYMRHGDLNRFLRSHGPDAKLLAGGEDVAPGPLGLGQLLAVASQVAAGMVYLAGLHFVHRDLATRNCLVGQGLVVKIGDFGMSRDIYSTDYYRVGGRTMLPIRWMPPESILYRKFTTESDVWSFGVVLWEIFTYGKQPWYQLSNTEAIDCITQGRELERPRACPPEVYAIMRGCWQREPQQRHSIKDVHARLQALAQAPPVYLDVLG

COCCN1C[C@@H](NC(=O)Nc2c(C)c(-c3cnc(OC)nc3)nn2-c2ccccc2)[C@H](c2cc(F)nc(F)c2)O1 (racemic) [Compound I-187]
IC50 [1]: < 100 nM

CCN1C[C@@H](NC(=O)Nc2c(C)c(-c3ccc4nc(C(N)=O)cn4c3)nn2-c2ccccc2)[C@H](c2ccc(F)c(F)c2)O1 (racemic) [Compound I-611]
IC50 [2]: < 100 nM

COCCN1C[C@@H](NC(=O)Nc2c(C)c(-c3cnc(N4CCN(C)[C@@H](C)C4)nc3)nn2-c2ccccc2)[C@H](c2ccnc(F)c2)O1 [Compound I-593]
IC50 [2]: < 100 nM

CCN1C[C@@H](NC(=O)Nc2c(C)c(OCC(=O)N3CCN(C)CC3)nn2-c2ccccc2)[C@H](c2ccc(F)c(F)c2)O1 (racemic) [Compound I-649]
IC50 [2]: < 100 nM

COCCN1C[C@@H](NC(=O)Nc2c(C)c(-c3cnc(C)nc3)nn2-c2ccccc2)[C@H](c2cccc(F)c2)O1 (racemic) [Compound I-140]
IC50 [3]: < 100 nM

COCCN1C[C@@H](NC(=O)Nc2c(C)c(-c3cnc(OC4CCN(C)CC4)nc3)nn2-c2ccccc2)[C@H](c2cc(F)nc(F)c2)O1 (racemic) [Compound I-418]
IC50 [4]: < 100 nM

COCCN1C[C@@H](NC(=O)Nc2c(C)c(-c3cnc(C(=O)NCC(F)(F)F)c(C)c3)nn2-c2ccccc2)[C@H](c2ccnc(F)c2)O1 (racemic) [Compound I-168]
IC50 [3]: < 100 nM

COCCN1C[C@@H](NC(=O)Nc2c(C)c(-c3ccc(N4CCN(CC#N)CC4)nc3)nn2-c2ccccc2)[C@H](c2ccnc(F)c2)O1 (racemic) [Compound I-375]
IC50 [4]: < 100 nM

COCCN1C[C@@H](NC(=O)Nc2c(Br)c(-c3cnc(OC)nc3)nn2-c2ccccc2)[C@H](c2ccnc(F)c2)O1 [Compound I-680]
IC50 [2]: < 100 nM

COCCN1C[C@@H](NC(=O)Nc2c(C)c(-c3ccc4c(c3)NCCO4)nn2-c2ccccc2)[C@H](c2ccnc(F)c2)O1 (racemic) [Compound I-382]
IC50 [4]: < 100 nM

COCCN1C[C@@H](NC(=O)Nc2c(C)c(-c3cnc(N4CCN(C)C(=O)C4)nc3)nn2-c2ccccc2)[C@H](c2ccnc(F)c2)O1 (racemic) [Compound I-488]
IC50 [4]: < 100 nM

COCCN1C[C@@H](NC(=O)Nc2c(C)c(-c3cnc(OC4COC4)nc3)nn2-c2ccccc2)[C@H](c2ccnc(F)c2)O1 (racemic) [Compound I-465]
IC50 [4]: < 100 nM

COCCN1C[C@@H](NC(=O)Nc2c(C)c(-c3cnc4c(c3)c(N3CCN(C)CC3)nn4C)nn2-c2ccccc2)[C@H](c2ccnc(F)c2)O1 (racemic) [Compound I-490]
IC50 [4]: < 100 nM

COCCN1C[C@@H](NC(=O)Nc2c(C)c(-c3cnc(OC)cn3)nn2-c2ccccc2)[C@H](c2ccnc(F)c2)O1 (racemic) [Compound I-352]
IC50 [4]: < 100 nM

CCN1C[C@@H](NC(=O)Nc2c(C)c(OCC(N)=O)nn2-c2ccccc2)[C@H](c2ccc(F)c(F)c2)O1 (racemic) [Compound I-645]
IC50 [5]: 68 nM

COCCN1C[C@@H](NC(=O)Nc2c(C)c(-c3cnc4c(c3)OCC(=O)N4)nn2-c2ccccc2)[C@H](c2ccnc(F)c2)O1 (racemic) [Compound I-279]
IC50 [5]: 2 nM

CCN1C[C@@H](NC(=O)Nc2c(C)c(OCCC3CCN(C(=O)OC(C)(C)C)C3)nn2-c2ccccc2)[C@H](c2ccc(F)c(F)c2)O1 (stereo partly drawn) [Compound I-597]
IC50 [2]: < 100 nM

COCCN1C[C@@H](NC(=O)Nc2c(C)c(-c3ccc(N4CCN(C(=O)OC(C)(C)C)CC4)nc3)nn2-c2ccccc2)[C@H](c2ccnc(F)c2)O1 (racemic) [Compound I-372]
IC50 [4]: < 100 nM

COCCN1C[C@@H](NC(=O)Nc2c(C)c(C3=CCN(C(=O)OC(C)(C)C)CC3)nn2-c2ccccc2)[C@H](c2cnc(F)c(F)c2)O1 (racemic) [Compound I-46]
IC50 [3]: < 100 nM

COCCN1C[C@@H](NC(=O)Nc2c(C)c(-c3ccc(CN=S(C)(C)=O)cc3)nn2-c2ccccc2)[C@H](c2ccc(F)c(F)c2)O1 [Compound I-332]
IC50 [5]: 1.2 nM

COCCN1C[C@@H](NC(=O)Nc2c(C)c(-c3cnc4c(c3)nc(C(=O)N3CCN(C)CC3)n4C)nn2-c2ccccc2)[C@H](c2ccnc(F)c2)O1 (racemic) [Compound I-403]
IC50 [4]: < 100 nM

COCCN1C[C@@H](NC(=O)Nc2c(C)c(-c3cnc(OC)c(C(=O)NC4CCOCC4)c3)nn2-c2ccc(F)c(F)c2)[C@H](c2ccc(F)c(F)c2)O1 (racemic) [Compound I-182]
IC50 [1]: < 100 nM

Cc1c(-c2ccncc2)nn(-c2ccccc2)c1NC(=O)N[C@@H]1CN(CC(F)F)O[C@H]1c1ccc(F)c(F)c1 (racemic) [Compound I-630]
IC50 [2]: < 100 nM

COCCN1C[C@@H](NC(=O)Nc2c(C)c(-c3ccn(C)c(=O)c3)nn2-c2ccccc2)[C@H](c2ccc(F)c(F)c2)O1 [Compound I-497]
IC50 [4]: < 100 nM

COCCN1C[C@@H](NC(=O)Nc2c(C)c(-c3cnc4c(cnn4CC(F)(F)F)c3)nn2-c2ccccc2)[C@H](c2ccnc(F)c2)O1 (racemic) [Compound I-228]
IC50 [1]: < 100 nM

COCCN1C[C@@H](NC(=O)Nc2c(C)c(-c3cnc(OC)c(C(=O)NC4CCS(=O)(=O)CC4)c3)nn2-c2ccccc2)[C@H](c2cnc(OC)c(F)c2)O1 (racemic) [Compound I-104]
IC50 [3]: < 100 nM

COCCN1C[C@@H](NC(=O)Nc2c(C)c(-c3cnc(N4CC(O)C4)nc3)nn2-c2ccccc2)[C@H](c2ccc(F)c(F)c2)O1 [Compound I-209]
IC50 [1]: < 100 nM

COCCN1C[C@@H](NC(=O)Nc2c(C)c(-c3cnc(N4CC(F)C4)nc3)nn2-c2ccccc2)[C@H](c2ccnc(F)c2)O1 (racemic) [Compound I-480]
IC50 [4]: < 100 nM

COCCC1C[C@@H](NC(=O)Nc2c(C)c(-c3cnc(CO)nc3)nn2-c2ccccc2)[C@H](c2ccccc2)O1 (stereo partly drawn) [Compound I-296]
IC50 [1]: < 100 nM

CCN1C[C@@H](NC(=O)Nc2c(C)c(OCCCC(=O)N3CCN(C)CC3)nn2-c2ccccc2)[C@H](c2ccc(F)c(F)c2)O1 (racemic) [Compound I-666]
IC50 [2]: < 100 nM

COCCN1C[C@@H](NC(=O)Nc2c(C)c(-c3ccc4c(c3)CS(=O)(=O)N4C)nn2-c2ccccc2)[C@H](c2ccnc(F)c2)O1 (racemic) [Compound I-262]
IC50 [1]: < 100 nM

COCCN1C[C@@H](NC(=O)Nc2c(C)c(-c3cnc(-c4cnn(C)c4)nc3)nn2-c2ccccc2)[C@H](c2ccnc(F)c2)O1 (racemic) [Compound I-368]
IC50 [4]: < 100 nM

COCCN1C[C@@H](NC(=O)Nc2c(C)c(-c3cnc(OC)c(C(=O)NC4CCOCC4)c3)nn2-c2ccc(F)cc2)[C@H](c2ccnc(F)c2)O1 (racemic) [Compound I-239]
IC50 [5]: 3.8 nM

COCCN1C[C@@H](NC(=O)Nc2c(C)c(-c3cnc(OCF)nc3)nn2-c2ccccc2)[C@H](c2ccnc(F)c2)O1 (racemic) [Compound I-620]
IC50 [5]: 6.8 nM

COCCN1C[C@@H](NC(=O)Nc2c(C)c(-c3cnc(N4CC(F)(F)C4)nc3)nn2-c2ccccc2)[C@H](c2ccnc(F)c2)O1 (racemic) [Compound I-481]
IC50 [4]: < 100 nM

Cc1c(-c2cnc3c(cnn3C)c2)nn(-c2ccccc2)c1NC(=O)N[C@@H]1CN(CC(F)(F)F)O[C@H]1c1ccc(F)c(F)c1 (racemic) [Compound I-305]
IC50 [1]: < 100 nM

COCCN1C[C@@H](NC(=O)Nc2c(C)c(-c3cnc(C)c(N=S(C)(C)=O)c3)nn2-c2ccccc2)[C@H](c2ccc(F)c(F)c2)O1 (racemic) [Compound I-176]
IC50 [3]: < 100 nM

COCCN1C[C@@H](NC(=O)Nc2cc(-c3cnc(OC)c(C(=O)NC4CCOCC4)c3)nn2C)[C@H](c2ccnc(F)c2)O1 (racemic) [Compound I-94]
IC50 [3]: > 1000 nM

COCCN1C[C@@H](NC(=O)Nc2c(C)c(C3=CCN(C(C)=O)CC3)nn2-c2ccccc2)[C@H](c2ccc(F)c(F)c2)O1 [Compound I-39]
IC50 [5]: 0.48 nM

CCN1C[C@@H](NC(=O)Nc2c(C)c(OCCC3CCNC3)nn2-c2ccccc2)[C@H](c2ccc(F)c(F)c2)O1 (stereo partly drawn) [Compound I-599]
IC50 [2]: < 100 nM

COCCN1C[C@@H](NC(=O)Nc2c(C)c(-c3ccc4nc(C)nn4c3)nn2-c2ccccc2)[C@H](c2cnc(F)c(F)c2)O1 [Compound I-363]
IC50 [4]: < 100 nM

CCN1C[C@@H](NC(=O)Nc2c(C)c(-c3cnc4c(cnn4C)c3)nn2-c2ccccc2)[C@H](c2ccc(F)c(F)c2)O1 (racemic) [Compound I-200]
IC50 [1]: < 100 nM

COCCN1C[C@@H](NC(=O)Nc2c(C)c(-c3cc(-c4cn(Cc5ccc(OC)cc5)nn4)c(=O)n(C)c3)nn2-c2ccccc2)[C@H](c2ccc(F)c(F)c2)O1 [Compound I-277]
IC50 [1]: < 100 nM

COCCN1C[C@@H](NC(=O)Nc2c(C)c(-c3cnc4c(c3)oc(=O)n4C)nn2-c2ccccc2)[C@H](c2cnc(F)c(F)c2)O1 (racemic) [Compound I-123]
IC50 [3]: < 100 nM

COCCN1C[C@@H](NC(=O)Nc2c(C)c(-c3cnc(C(N)=O)c(F)c3)nn2-c2ccccc2)[C@H](c2ccc(F)c(F)c2)O1 [Compound I-312]
IC50 [1]: < 100 nM

COCCN1C[C@@H](NC(=O)Nc2c(C)c(-c3cnc(N4CCN(C(=O)OCc5ccccc5)CC4)nc3)nn2-c2ccccc2)[C@H](c2cc(F)nc(F)c2)O1 (racemic) [Compound I-370]
IC50 [4]: < 100 nM

CCN1C[C@@H](NC(=O)Nc2c(C)c(OCc3cc(=O)ccn3C)nn2-c2ccccc2)[C@H](c2ccc(F)c(F)c2)O1 (racemic) [Compound I-644]
IC50 [2]: < 100 nM

COCCN1C[C@@H](NC(=O)Nc2c(C)c(-c3ccn4ccnc4c3)nn2-c2ccccc2)[C@H](c2ccnc(F)c2)O1 (racemic) [Compound I-471]
IC50 [4]: < 100 nM

COCCN1C[C@@H](NC(=O)Nc2c(C)c(-c3cnc(N(C)CCOC)nc3)nn2-c2ccccc2)[C@H](c2ccnc(F)c2)O1 (racemic) [Compound I-588]
IC50 [2]: < 100 nM

COCCN1C[C@@H](NC(=O)Nc2c(C)c(-c3cnc4nccnc4c3)nn2-c2ccccc2)[C@H](c2ccc(F)c(F)c2)O1 (racemic) [Compound I-134]
IC50 [3]: < 100 nM

COCCN1C[C@@H](NC(=O)Nc2c(C)c(-c3cnc4c(c3)ncn4C)nn2-c2ccccc2)[C@H](c2ccccc2)O1 (racemic) [Compound I-161]
IC50 [3]: < 100 nM
